The values that follow come from patent publication US20240299328A1, “COMPOSITIONS COMPRISING 15-HEPE AND METHODS OF TREATING AND/OR PREVENTING HEMATOLOGIC DISORDERS AND RELATED DISEASES” (Afimmune Limited, priority 2023, published 2024).

One data set concerns BDL-operated mice. As to the kind of experiment: BDL study: serum biochemistry (ALT, total bilirubin). The format is in vivo. The method, then: Sample Collection: For serum samples, non-fasting blood was collected in serum separate tubes without anticoagulant through direct cardiac puncture and centrifuged at 3,500×g for 4 minutes at 4° C. The superatant was collected and stored at −80° C. for biochemistry (30 μL) and shipping (all the remaining). For liver samples, left lateral lobe was collected and cut into 6 pieces. Two pieces of left lateral lobe were fixed in Bouin's solution and then embedded in paraffin. Samples were stored at room temperature for histological analysis. The other 2 pieces of left lateral lobe were embedded in O.C.T. compound and quick frozen in liquid nitrogen. Samples were stored at −80° C. The remaining pieces of left lateral lobe was snap frozen in liquid nitrogen and stored at −80° C. for gene expression analyses. Right medial lobe, left medial lobe, right lobe and caudate lobe were snap frozen in liquid nitrogen and stored at −80° C. for shipping.

A further data set deals with Sprague Dawley rats. As to the kind of experiment: 26 week rat toxicity study: tolerability, clinical signs. The data set is classed as in vivo. The note with it: 6 g/kg/day oral gavage, replaced with 3 g/kg/day. The method, then:
The test and control items were administered to the appropriate animals by once daily oral gavage 7 days a week for a minimum of 26 weeks. The volume for each animal was based on the most recent body weight measurements. The doses were given using a syringe with attached gavage cannula. The first day of dosing was designated as Day 1. The dosing formulations were removed from the refrigerator and stirred for at least 30 minutes before dosing. The dosing formulations were also stirred continuously during dosing.
Due to the onset of clinical signs, including hunched posture, erect fur and abnormal gait and body weight loss, animals 3206M, 3515F and 3703F were given a dosing holiday from Day 45 and remaining Group 3 animals were given a dosing holiday from Day 48. Animals will start dosing at the lower dose level (3000 mg/kg/day) from Day 64. The following tables illustrate the treatments (Table 22) and animal groupings (Table 23) that were used in the study.
Mortality/moribundity checks were made daily. […] Animals were not removed from the cage during observation, unless necessary for identification or confirmation of possible findings.
Post-dose observations were made regularly throughout the day. […] The onset, intensity, and duration of these signs were recorded; particular attention was paid to the animals during and for the first hour after dosing.

Another data set relates to NAFLD patients. As to the kind of experiment: Phase IIa study in NAFLD patients: metabolic, glycemic, lipid and liver parameters. The data set is classed as in vivo, human. The method, then:
The study was planned to include 96 evaluable patients with 32 patients randomized per treatment group.
HOMA-IR/Adipo-IR: HOMA-IR/Adipo-IR levels are a method of measuring insulin resistance. HOMA-IR is calculated by multiplying fasting plasma insulin (FPI) by fasting plasma glucose (FPG), then dividing by the constant 405. Adipo-IR is calculated by multiplying fasting non-esterified fatty acids (NEFA)×fasting insulin. Blood samples were taken to assess HOMA-IR and Adipo-IR at Visit 2/Baseline, Visit 3/Week 2, Visit 4/Week 4, Visit 6/Week 8, Visit 8/Week 12, Visit 10/Week 16 and Follow up Visit 11/Week 20. All subjects were required to have been fasted for a minimum of 8 hours prior to blood sampling. If subjects had not fasted for a minimum of 8 hours, the duration of fasting time was recorded, and subjects encouraged to fast appropriately for the next clinical visit.
Liver stiffness and CAP: Liver stiffness and CAP were assessed using transient elastography (e.g., FibroScan® 502 Touch model or equivalent). Patients were fasted and scanned at the same time of the day, if possible, for baseline (Week 0) and Visit 10 (Week 16). For this assessment the following conditions were met: patients were lying in dorsal decubitus position with the right arm in maximal abduction behind the head, in a similar position to that used for liver biopsy (LB); the tip of the transducer was placed on the skin between the ribs over the right lobe of the liver (the physician took the measurements with the probe placed in the intercostal space); during the FibroScan® examination the choice of M+ or XL+ probe was determined by the Automatic Probe Selection tool (APS) (If, the APS tool advises to use the “XL+ probe” or “switch” continuously between “M+ and XL+ probe”, only the XL+ probe was used); and the operator, assisted by an ultrasonic time motion image, located a portion of the liver which is free of large vascular structures (the depth of measurement was between 35-75 mm for the XL+ probe and 25-65 mm for the M+ probe and the explored volume will be 3 cm^3). For each patient, the operator performed an examination including at least 10 valid measurements or a maximum of 20 attempts, with the XL+ or M+ probe, at the same spot. The entire examination lasted no more than 10-15 minutes. The final stiffness and CAP values was recorded as median values of valid measurements.
Clinical Laboratory Safety Tests: Safety tests were performed for hematology, serum biochemistry, coagulation, lipid profile, and urinalysis: Blood and urine samples were taken as per the Study Flow Chart in Table 19 for routine hematology, serum biochemistry, coagulation and urinalysis tests, along with a Lipid Profile. All samples were analyzed in the central laboratory. All subjects were fasted for a minimum of 8 hours prior to blood sampling. If subjects had not fasted for a minimum of 8 hours, the duration of fasting time was recorded, and subjects encouraged to fast appropriately for the next clinical visit. • Hematology: Full blood count to include red cell count, hemoglobin, hematocrit, white cell count, differential white cell count, platelet count and reticulocyte count. • Serum biochemistry: Urea (blood urea nitrogen; BUN), creatinine, uric acid, total bilirubin, Indirect and Direct Bilirubin, sodium, bicarbonate potassium, phosphorus, calcium chloride, alkaline phosphatase (ALP), aspartate aminotransferase (AST), alanine aminotransferase (ALT), ALT/AST ratio, lactate dehydrogenase (LDH), creatine phosphokinase (CPK), albumin, total protein, cholesterol, triglycerides, glucose, C-reactive protein (CRP). • Coagulation: prothrombin time (PT), international normalized ratio (INR) and activated partial […]. • Lipid Profile: LDL, HDL, and VLDL-C. • Urinalysis: pH, protein, glucose, blood, ketones, leukocytes, leukocyte esterase, bilirubin, specific gravity, urobilinogen and nitrate. […]

Setting [1] is: 50 mg/kg PO QD Day 0-13, Day 14, mean ± SD.
The mark [2] stands for this setting: 250 mg/kg PO QD Day 0-13, Day 14, mean ± SD.
[3] abbreviates: 500 mg/kg PO QD Day 0-13, Day 14, mean ± SD.
Where [4] appears, read: DS102 50, 250, 500 mg/kg groups vs Vehicle group.

As for `CC/C=C\C[C@H](O)/C=C/C=C\C/C=C\C/C=C\CCCC(=O)OCC` [DS102, 15(S)-hydroxy-(5Z,8Z,11Z,13E,17Z)-eicosapentaenoic acid ethyl ester], the entries for the “Serum ALT” value in the data set with BDL-operated mice (setting [1]), with BDL-operated mice (setting [2]) and in the data set with BDL-operated mice (setting [3]) were 402 ± 112 U/L, 351 ± 155 U/L and 383 ± 147 U/L, respectively. The entries for the “Serum Total Bilirubin” value with BDL-operated mice (setting [1]), in the data set with BDL-operated mice (setting [2]) and with BDL-operated mice (setting [3]) were 26.8 ± 6.9 mg/dL, 23.5 ± 9.8 mg/dL and 26.2 ± 6.1 mg/dL, respectively. Moreover, the “serum ALT level” value with BDL-operated mice (setting [4]) is on record as “no significant differences”. The “serum total bilirubin level” value in the data set on BDL-operated mice (setting [4]) is recorded as “no significant differences”. Further, the “tolerability of the highest dose” value in the data set with Sprague Dawley rats was “not well tolerated”. Besides, the “hepatic fat content as assessed by CAP” value in the data set with NAFLD patients is recorded as “reduced”. In addition, the “insulin sensitivity and glycemic control” value in the data set on NAFLD patients (1 g or 2 g per day, 16 weeks) was “improvement”. The “markers of metabolic overload” value in the data set with NAFLD patients (1 g or 2 g per day, 16 weeks) was “statistically significant reduction”. Further, the “insulin resistance indices (HOMA-IR and adipo-IR levels)” value is given as “improvement” with NAFLD patients (1 g or 2 g per day, Week 16) and “significant improvements” in the data set on NAFLD patients (2 g, Week 16, Per Protocol Set (PPS)). Further, the “glycemic control (HbA1c levels)” value with NAFLD patients (1 g or 2 g per day, baseline to Week 16, dose-dependent) was “clinically significant improvements”. For the same compound, the “insulin, glucose, and free fatty acid levels” value in the data set with NAFLD patients (1 g or 2 g per day, baseline to Week 16 vs placebo) was “reduction”. In addition, in the data set with NAFLD patients (2 g), the “alkaline phosphate (ALP)” value was “reduced”. The “Triglycerides (median placebo-corrected % change from baseline)” value in the data set on NAFLD patients (2 g, Week 16, Full Analysis Set) was −40.2%; in the data set with NAFLD patients (2 g, Week 16, Subgroup: High Triglycerides (>200 mg/dL)) it was −20.4%; in the data set with NAFLD patients (2 g, Week 16, Subgroup: Triglycerides > Upper Limit Normal (>150 mg/dL)), −39.0%. In addition, the “lipid profile (total cholesterol, VLDL-C, non-HDL-C, RLP cholesterol, triglyceride levels)” value in the data set on NAFLD patients (Week 16, safety analysis set (SAS)) was “significantly improved”.
